Assay results taken from article PMC8289695 (Cell Reports, 2021).

Tested on: SARS-CoV-2
Type: cell-based, strain USA_WA1/2020
Settings: for time of addition: single treatment 1 h prior to infection, compound removed prior to infection: VPS34-IN1 and PIK-III at 5 μM

Compound	time of addition: single treatment 1 h prior to infection, compound removed prior to infection	time of addition: dosing at 2 hpi or 4 hpi
Nc1ncc(-c2ccnc(Nc3ccncc3)n2)c(CC2CC2)n1 [PIK-III]	inhibited SARS-CoV-2 replication	
CC(C)(O)CNc1ncc(-c2ccnc(Nc3ccnc(Cl)c3)n2)c(CC2CC2)n1 [VPS34-IN1]	inhibited SARS-CoV-2 replication	
CCCCCCCCCCC[C@@H](C[C@@H]1OC(=O)[C@H]1CCCCCC)OC(=O)[C@H](CC(C)C)NC=O [orlistat]	minimal efficacy	remained inhibitory
CCC/C=C/C/C=C/C=C/C=N/NN=O [triacsin C]	minimal efficacy	remained inhibitory
